From patent US10519211B2, “Compounds as peptidic GLP1/glucagon/GIP receptor agonists” (SANOFI, priority 2016, dated 2019)
Numbered stars: 1 amine (or outer) side, 2 acyl side, 3 side chain; on linkers, the order of the positions; unused ones are H or OH. Square brackets hold non-standard residues; d marks the D form. Side chains are listed from the residue outwards. Peptide text beside a SMILES is read from it. * marks the point of attachment. γGlu = O=C(O)[C@H](CCC(=O)[*:2])N[*:1]; Palmitoyl = CCCCCCCCCCCCCCCC(=O)*; Aib = CC(C)(N)C(=O)O

Assays:
[1] = target: T1, human GIP receptor (hGIP-R) (Homo sapiens, UniProt P48546); assay: cAMP response (HTRF) of HEK-293 cells stably expressing human GIP receptor; type: cell-based; conditions: Table 8; cAMP formation
T1 construct: expressed in transfected cells; host or cells: HEK-293
T1 sequence (P48546 22-466): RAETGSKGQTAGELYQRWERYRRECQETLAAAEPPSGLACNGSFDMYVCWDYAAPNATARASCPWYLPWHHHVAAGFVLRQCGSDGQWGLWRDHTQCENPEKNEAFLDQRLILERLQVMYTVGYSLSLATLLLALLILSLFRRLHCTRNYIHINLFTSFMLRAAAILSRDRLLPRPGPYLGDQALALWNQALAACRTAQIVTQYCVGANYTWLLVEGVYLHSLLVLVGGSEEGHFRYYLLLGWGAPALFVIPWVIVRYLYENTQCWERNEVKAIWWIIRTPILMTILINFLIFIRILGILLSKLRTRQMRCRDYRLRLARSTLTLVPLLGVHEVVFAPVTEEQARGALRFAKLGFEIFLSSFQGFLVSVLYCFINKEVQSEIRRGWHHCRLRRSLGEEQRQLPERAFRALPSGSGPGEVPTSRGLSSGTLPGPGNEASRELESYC
Description: cAMP content of cells was determined using a kit from Cisbio Corp. (cat. no. 62AM4PEJ) based on HTRF (Homogenous Time Resolved Fluorescence). For preparation, cells were split into T175 culture flasks and grown overnight to near confluency in medium (DMEM/10% FBS). Medium was then removed and cells washed with PBS lacking calcium and magnesium, followed by proteinase treatment with accutase (Sigma-Aldrich cat. no. A6964). Detached cells were washed and resuspended in assay buffer (1×HBSS; 20 mM HEPES, 0.1% BSA, 2 mM IBMX) and cellular density determined. They were then diluted to 400000 cells/ml and 25 μl-aliquots dispensed into the wells of 96-well plates. For measurement, 25 μl of test compound in assay buffer was added to the wells, followed by incubation for 30 minutes at room temperature.
Potencies of peptidic compounds at the GLP-1, glucagon and GIP receptors were determined by exposing cells expressing human glucagon receptor (hGlucagon R), human GIP receptor (hGIP-R) or human GLP-1 receptor (hGLP-1 R) to the listed compounds at increasing concentrations and measuring the formed cAMP as described in Methods.

[2] = Dynamic light scattering (DLS), hydrodynamic radius as surrogate for interaction parameter kD; type: physicochemical; conditions: for Delta Rh [nm] = Rh5 − Rh1: DLS buffer system A pH 4.5; for Rh1 [nm] c= 1 mg/ml / Rh5 [nm] c = 5 mg/ml: hydrodynamic radius, DLS buffer system A pH 4.5, DLS method C, 25° C.
Procedure, shortened: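 Rh and diffusion constant measured in triplicate at 1 and 5 mg/ml peptide in 25 mM acetate pH4.5 with methionine, m-cresol and glycerol, at 25°C, 830 nm, 158°. Rh5<Rh1 or D5>D1 taken as kD>0, indicating repulsive interactions.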

Compound	EC50 [1]	Delta Rh [nm] = Rh5 − Rh1 [2]	Rh1 [nm] c= 1 mg/ml [2]	Rh5 [nm] c = 5 mg/ml [2]
CCCCCCCCCCCCCCCC(=O)N[C@@H](CCC(=O)N[C@@H](CCC(=O)NCCCC[C@H](NC(=O)[C@H](CC(C)C)NC(=O)[C@H](CCCCN)NC(=O)[C@H](CO)NC(=O)[C@H](CC(C)C)NC(=O)[C@H](CC(=O)O)NC(=O)[C@H](CO)NC(=O)[C@@H](NC(=O)[C@H](Cc1ccccc1)NC(=O)[C@@H](NC(=O)CNC(=O)[C@H](CCC(N)=O)NC(=O)C(C)(C)NC(=O)[C@@H](N)Cc1c[nH]cn1)[C@@H](C)O)[C@@H](C)O)C(=O)N[C@@H](CCC(=O)O)C(=O)N[C@@H](CCCCN)C(=O)N[C@@H](CCC(N)=O)C(=O)N[C@@H](CCCNC(=N)N)C(=O)N[C@@H](CCC(N)=O)C(=O)NC(C)(C)C(=O)N[C@@H](CCC(=O)O)C(=O)N[C@@H](Cc1ccccc1)C(=O)N[C@H](C(=O)N[C@@H](CCC(=O)O)C(=O)N[C@@H](Cc1c[nH]c2ccccc12)C(=O)N[C@@H](CC(C)C)C(=O)N[C@@H](CCCCN)C(=O)N[C@@H](C)C(=O)NCC(=O)NCC(=O)N1CCC[C@H]1C(=O)N1CCC[C@H]1C(=O)N[C@@H](CO)C(=O)NC(C)(C)C(=O)N[C@@H](CCCCN)C(=O)N1CCC[C@H]1C(=O)N1CCC[C@H]1C(=O)N1CCC[C@H]1C(=O)N[C@@H](CCCCN)C(N)=O)[C@@H](C)CC)C(=O)O)C(=O)O [SEQ ID NO: 6, H-Aib-Q-G-T-F-T-S-D-L-S-K-L-K[gGlu-gGlu-Palm]-E-K-Q-R-Q-Aib-E-F-I-E-W-L-K-A-G-G-P-P-S-Aib-K-P-P-P-K-NH2]	7.9 pM	−0.5 nm	2.3 nm	1.8 nm
CCCCCCCCCCCCCCCC(=O)N[C@@H](CCC(=O)N[C@@H](CCC(=O)NCCCC[C@H](NC(=O)[C@H](CC(C)C)NC(=O)[C@H](CCCCN)NC(=O)[C@H](CO)NC(=O)[C@H](CC(C)C)NC(=O)[C@H](CC(=O)O)NC(=O)[C@H](CO)NC(=O)[C@@H](NC(=O)[C@H](Cc1ccccc1)NC(=O)[C@@H](NC(=O)CNC(=O)[C@H](CCC(N)=O)NC(=O)C(C)(C)NC(=O)[C@@H](N)Cc1c[nH]cn1)[C@@H](C)O)[C@@H](C)O)C(=O)N[C@@H](CCC(=O)O)C(=O)N[C@@H](CCCCN)C(=O)N[C@@H](CCC(N)=O)C(=O)N[C@@H](CCCNC(=N)N)C(=O)N[C@@H](CCC(N)=O)C(=O)NC(C)(C)C(=O)N[C@@H](CCC(=O)O)C(=O)N[C@@H](Cc1ccccc1)C(=O)N[C@H](C(=O)N[C@@H](CCC(=O)O)C(=O)N[C@@H](Cc1c[nH]c2ccccc12)C(=O)N[C@@H](CC(C)C)C(=O)N[C@@H](CCCCN)C(=O)N[C@@H](C)C(=O)N[C@H](C)C(=O)NCC(=O)N1CCC[C@H]1C(=O)N1CCC[C@H]1C(=O)N[C@@H](CO)C(=O)NC(C)(C)C(=O)N[C@@H](CCCCN)C(=O)N1CCC[C@H]1C(=O)N1CCC[C@H]1C(=O)N1CCC[C@H]1C(=O)N[C@@H](CCCCN)C(N)=O)[C@@H](C)CC)C(=O)O)C(=O)O [SEQ ID NO: 7, H-Aib-Q-G-T-F-T-S-D-L-S-K-L-K[gGlu-gGlu-Palm]-E-K-Q-R-Q-Aib-E-F-I-E-W-L-K-A-dAla-G-P-P-S-Aib-K-P-P-P-K-NH2] (H-H[Aib]QGTFTSDLSKLK([γGlu-γGlu-Palmitoyl])EKQRQ[Aib]EFIEWLKA[dA]GPPS[Aib]KPPPK-NH2)		−0.3 nm	2.8 nm	2.4 nm
CCCCCCCCCCCCCCCC(=O)N[C@@H](CCC(=O)N[C@@H](CCC(=O)NCCCC[C@H](NC(=O)[C@H](CC(C)C)NC(=O)[C@H](CCCCN)NC(=O)[C@H](CO)NC(=O)[C@H](CC(C)C)NC(=O)[C@H](CC(=O)O)NC(=O)[C@H](CO)NC(=O)[C@@H](NC(=O)[C@H](Cc1ccccc1)NC(=O)[C@@H](NC(=O)CNC(=O)[C@H](CCC(N)=O)NC(=O)C(C)(C)NC(=O)[C@@H](N)Cc1c[nH]cn1)[C@@H](C)O)[C@@H](C)O)C(=O)N[C@@H](CCC(=O)O)C(=O)N[C@@H](CCC(=O)O)C(=O)N[C@@H](CCC(N)=O)C(=O)N[C@@H](CCCNC(=N)N)C(=O)N[C@@H](CCC(N)=O)C(=O)NC(C)(C)C(=O)N[C@@H](CCC(=O)O)C(=O)N[C@@H](Cc1ccccc1)C(=O)N[C@H](C(=O)N[C@@H](CCC(=O)O)C(=O)N[C@@H](Cc1c[nH]c2ccccc12)C(=O)N[C@@H](CC(C)C)C(=O)N[C@@H](CCCCN)C(=O)N[C@@H](C)C(=O)NCC(=O)NCC(=O)N[C@@H](Cc1c[nH]cn1)C(=O)N1CCC[C@H]1C(=O)N[C@@H](CO)C(=O)NC(C)(C)C(=O)N[C@@H](CCCCN)C(=O)N1CCC[C@H]1C(=O)N1CCC[C@H]1C(=O)N1CCC[C@H]1C(=O)N[C@@H](CCCCN)C(N)=O)[C@@H](C)CC)C(=O)O)C(=O)O [SEQ ID NO: 8, H-Aib-Q-G-T-F-T-S-D-L-S-K-L-K[gGlu-gGlu-Palm]-E-E-Q-R-Q-Aib-E-F-I-E-W-L-K-A-G-G-H-P-S-Aib-K-P-P-P-K-NH2]	5.6 pM			
CCCCCCCCCCCCCCCC(=O)N[C@@H](CCC(=O)N[C@@H](CCC(=O)NCCCC[C@H](NC(=O)[C@H](CC(C)C)NC(=O)[C@H](CCCCN)NC(=O)[C@H](CO)NC(=O)[C@H](CC(C)C)NC(=O)[C@H](CC(=O)O)NC(=O)[C@H](CO)NC(=O)[C@@H](NC(=O)[C@H](Cc1ccccc1)NC(=O)[C@@H](NC(=O)CNC(=O)[C@H](CCC(N)=O)NC(=O)C(C)(C)NC(=O)[C@@H](N)Cc1c[nH]cn1)[C@@H](C)O)[C@@H](C)O)C(=O)N[C@@H](CCC(=O)O)C(=O)N[C@@H](CCC(=O)O)C(=O)N[C@@H](CCC(N)=O)C(=O)N[C@@H](CCCNC(=N)N)C(=O)N[C@@H](CCC(N)=O)C(=O)NC(C)(C)C(=O)N[C@@H](CCC(=O)O)C(=O)N[C@@H](Cc1ccccc1)C(=O)N[C@H](C(=O)N[C@@H](CCC(=O)O)C(=O)N[C@@H](Cc1c[nH]c2ccccc12)C(=O)N[C@@H](CC(C)C)C(=O)N[C@@H](CCCCN)C(=O)N[C@@H](C)C(=O)NCC(=O)NCC(=O)N1CCC[C@H]1C(=O)N1CCC[C@H]1C(=O)N[C@@H](CO)C(=O)NC(C)(C)C(=O)N[C@@H](CCCCN)C(=O)N1CCC[C@H]1C(=O)N1CCC[C@H]1C(=O)N1CCC[C@H]1C(=O)N[C@@H](CCCCN)C(N)=O)[C@@H](C)CC)C(=O)O)C(=O)O [SEQ ID NO: 9, H-Aib-Q-G-T-F-T-S-D-L-S-K-L-K[gGlu-gGlu-Palm]-E-E-Q-R-Q-Aib-E-F-I-E-W-L-K-A-G-G-P-P-S-Aib-K-P-P-P-K-NH2]	5.6 pM			
CCCCCCCCCCCCCCCC(=O)N[C@@H](CCC(=O)N[C@@H](CCC(=O)NCCCC[C@H](NC(=O)[C@H](CC(C)C)NC(=O)[C@H](CCCCN)NC(=O)[C@H](CO)NC(=O)[C@H](CC(C)C)NC(=O)[C@H](CC(=O)O)NC(=O)[C@H](CO)NC(=O)[C@@H](NC(=O)[C@H](Cc1ccccc1)NC(=O)[C@@H](NC(=O)CNC(=O)[C@H](CCC(N)=O)NC(=O)C(C)(C)NC(=O)[C@@H](N)Cc1c[nH]cn1)[C@@H](C)O)[C@@H](C)O)C(=O)N[C@@H](CCC(=O)O)C(=O)N[C@@H](CCCCN)C(=O)N[C@@H](CCC(N)=O)C(=O)N[C@@H](CCCNC(=N)N)C(=O)N[C@@H](CCC(N)=O)C(=O)NC(C)(C)C(=O)N[C@@H](CCC(=O)O)C(=O)N[C@@H](Cc1ccccc1)C(=O)N[C@H](C(=O)N[C@@H](CCC(=O)O)C(=O)N[C@@H](Cc1c[nH]c2ccccc12)C(=O)N[C@@H](CC(C)C)C(=O)N[C@@H](CCCCN)C(=O)N[C@@H](C)C(=O)N[C@H](C)C(=O)NCC(=O)N[C@@H](Cc1c[nH]cn1)C(=O)N1CCC[C@H]1C(=O)N[C@@H](CO)C(=O)NC(C)(C)C(=O)N[C@@H](CCCCN)C(=O)N1CCC[C@H]1C(=O)N1CCC[C@H]1C(=O)N1CCC[C@H]1C(=O)N[C@@H](CCCCN)C(N)=O)[C@@H](C)CC)C(=O)O)C(=O)O [SEQ ID NO: 13, H-Aib-Q-G-T-F-T-S-D-L-S-K-L-K[gGlu-gGlu-Palm]-E-K-Q-R-Q-Aib-E-F-I-E-W-L-K-A-dAla-G-H-P-S-Aib-K-P-P-P-K-NH2] (H-H[Aib]QGTFTSDLSKLK([γGlu-γGlu-Palmitoyl])EKQRQ[Aib]EFIEWLKA[dA]GHPS[Aib]KPPPK-NH2)		−0.3 nm	2.8 nm	2.5 nm
